From paper PMC12304301, “The Drosophila DEG/ENaC PPK12 is a Na^+ leak channel with a low Na^+ affinity” (Scientific Reports, 2025)

Tests used:
[1] = molecular target: T1, PPK12 (Drosophila melanogaster, UniProt Q9W250); assay: two-electrode voltage clamp of Xenopus oocytes, inhibition of total constitutive current; type: cell-based; settings: 140 mM NaCl bath, pH 7.4, -70 mV; only part of current carried by PPK12
T1 construct: cRNA expressed alone in Xenopus laevis oocytes; DEG/ENaC family members are trimers
T1 sequence (Q9W250 1-569): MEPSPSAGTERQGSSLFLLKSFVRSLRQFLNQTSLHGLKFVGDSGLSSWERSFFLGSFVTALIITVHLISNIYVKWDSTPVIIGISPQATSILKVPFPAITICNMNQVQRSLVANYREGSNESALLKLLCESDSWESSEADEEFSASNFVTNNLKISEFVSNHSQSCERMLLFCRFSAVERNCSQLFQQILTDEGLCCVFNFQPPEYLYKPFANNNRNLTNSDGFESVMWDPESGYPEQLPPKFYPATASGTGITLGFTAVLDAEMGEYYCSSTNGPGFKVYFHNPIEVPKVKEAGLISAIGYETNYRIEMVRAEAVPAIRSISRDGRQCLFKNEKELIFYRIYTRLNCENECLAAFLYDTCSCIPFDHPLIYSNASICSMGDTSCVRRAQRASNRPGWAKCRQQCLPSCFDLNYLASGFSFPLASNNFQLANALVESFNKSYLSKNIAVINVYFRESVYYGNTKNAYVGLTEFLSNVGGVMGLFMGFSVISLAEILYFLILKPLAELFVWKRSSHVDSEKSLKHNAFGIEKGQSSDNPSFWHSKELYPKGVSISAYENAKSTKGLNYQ

[2] = molecular target: T1, PPK12; assay: two-electrode voltage clamp of Xenopus oocytes, block of NMDG-sensitive constitutive current; type: cell-based

Row | Structure (SMILES) | % inhibition at 100 μM [1] | IC50 [2] [µM]
1 | NC(=NC(=O)c1nc(Cl)c(N)nc1N)NCc1ccccc1 [benzamil] | amiloride, its analog benzamil, and diminazene–partially and reversibly inhibited constitutive currents in PPK12-expressing oocytes | –
2 | N=C(N)c1ccc(/N=N/Nc2ccc(C(=N)N)cc2)cc1 [diminazene] | – | 110 ± 10
3 | N=C(N)NC(=O)c1nc(Cl)c(N)nc1N [amiloride] | – | 220 ± 20
